From paper PMC9551036, “A selective and orally bioavailable VHL-recruiting PROTAC achieves SMARCA2 degradation in vivo” (Nature Communications, 2022)
Values joined by “and” are separate entries in the source; they are usually repeats but may differ in a detail not shown here. Equal values may be shown once. Read-outs that look alike come from different tables or passages of the source.

Legend:
PBRM1BD5 = target: T1, PBRM1BD5 (Homo sapiens, UniProt Q86U86); experiment: TR-FRET ternary complex affinity and cooperativity, PBRM1; type: binding; settings: TR-FRET competition for PBRM1BD5, without VCB; mean ± SD; read-out: TR-FRET PBRM1BD EC50
T1 construct: GST (TEV site) (N); His6 (TEV site) (N, cleaved yes); made in house; host or cells: PBRM1^BD5: Escherichia coli BL21(DE3)

SMARCA4 = SMARCA4 (Homo sapiens, UniProt P51532); experiment: Imaging-based SMARCA4 protein assay in RKO cells; type: cell-based; parameters: endogenous in cells; host or cells: RKO, HCT116, LU99, HCC-364, HCT-15, HCC4006, SK-N-AS; settings: individual replicates
Method: 1250 cells per well in 60 µl medium were plated in flat bottom, poly-lysin coated 384-well plates (CellCarrier Ultra, Perkin Elmer). The next day, test compounds (10 µl of serial dilutions) and DMSO controls were diluted in DMEM medium such that the final DMSO content was <1% or were added using an ultrasound dispensing system. 4 wells were reserved for a background measurement. […] After aspirating the fixing solution, the cells were washed once with 25 µl PBS. 25 µl of blocking buffer (10% goat serum in PBS) was added and cells were incubated for 30 min, then washed once with PBS. Cells were stained with 20 µl of SMARCA2/4 primary antibody solution (Sigma #HPA029981 RRID:AB_10602406 1:1000 or Cell Signalling #52251 clone E9O6 RRID:AB_2799410 1:1000 in PBS with 10% FCS) for 2–4 h at room temperature. Cells were again washed once with PBS. […] The cell layer was then washed once with 25 µl PBS, the wells were filled with 25 µl PBS and the plates were sealed with an adhesive sheet. They were then imaged on the Opera Phoenix (mean intensity in the nucleus). Results were computed as percent of controls ((value of test compound − background)/(value of the negative control DMSO—background) multiplied by 100). EC50 values were computed using a 4-parametric logistic model.

SMARCA4^BD = target: T2, SMARCA4^BD (Homo sapiens, UniProt P51532); experiment: SPR binding to immobilised SMARCA4 bromodomain
T2 construct: P51532, residues 1448–1569 with additional N-terminal SM residues; GST (TEV site) (N, cleaved yes); made in house; host or cells: Escherichia coli BL21(DE3); construct from SGC Toronto
Method: SMARCA4^BD was provided by the Structural Genomics Consortium (SGC), Toronto[32] and SMARCA2^BD and PRM1^BD5 were synthesised by GeneArt then subcloned into pDEST15 vectors (Invitrogen). The VCB complex was expressed and purified as described previously, with the modification that 0.3 mM IPTG was used for induction of expression. […] Both were stored in 20 mM 4-(2-hydroxyethyl)−1-piperazineethanesulfonic acid (HEPES), 150 mM sodium chloride and 1 mM tris(2-carboxyethyl)phosphine (TCEP) pH 7.5. SMARCA2^BD, SMARCA4^BD and PBRM1^BD5 were expressed in Escherichia coli BL21(DE3) as N-terminal GST fusion proteins with a TEV protease cleavage site. Expression and purification of these proteins has been described previously[32],[33]. Starter cultures were grown overnight at 37 °C in 10 mL of Luria-Bertani (LB) medium with ampicillin (100 μg/mL). The starter cultures were diluted (1:100) in Terrific Broth (TB) medium with ampicillin (100 μg/mL) and grown in a shaking incubator at 37 °C to an optical density (OD600) ~1 before the temperature was lowered for induction (to 23 °C for SMARCA2^BD or 18 °C for SMARCA4^BD and PRRM1^BD5). […] Cells were harvested by centrifugation and stored at −80 °C prior to purification. Cells were resuspended in Lysis buffer and lysed by sonication (20 pulses of 5 s for 4 min) using a Sonopuls HD 3080 (Bandelin, Berlin, Germany) or by homogenisation using a Stansted Pressure Cell Homogeniser (Stansted Fluid Power). The Lysis buffers were as follows: for SMARCA2^BD: 50 mM HEPES, 500 mM sodium chloride, 5% glycerol, 5 mM dithiothreitol (DTT); for SMARCA4^BD: 25 mM HEPES, 0.3 M sodium chloride, 5% glycerol, 10 mM DTT, pH 7.5; for PBRM1^BD5: 25 mM HEPES, 300 mM sodium chloride, 5% glycerol, 10 mM DTT, pH 7.8; in each case supplemented with complete protease inhibitors (Roche). Affinity purification was performed using Glutathione Sepharose 4B (GE Healthcare) in batch mode or on-column. […] For SMARCA2^BD, prior to TEV protease cleavage the eluted GST-tagged BD was first dialysed into desalting buffer (20 mM HEPES, 250 mM sodium chloride, pH 7.0 + 0.5% glycerol). Where TEV cleavage was performed in solution, a second affinity (GST-trap) column purification step was carried out to remove the GST-tag and uncleaved GST-tagged protein. Proteins were further purified by SEC (HiLoad Superdex-75, 16/600) (GE Healthcare) and stored in Storage buffer (for SMARCA2^BD: 20 mM HEPES, 150 mM sodium chloride, pH 7.5; for SMARCA4^BD: 10 mM HEPES, 0.5 M NaCl, 5% glycerol, pH 7.5; for PBRM1^BD5: 20 mM HEPES, 300 mM NaCl, 5 mM DTT, pH 7.8). For AlphaScreen assays, eluted GST-tagged BDs were purified directly by SEC in the respective storage buffers without TEV cleavage. All chromatography purification steps were performed either at room temperature or 4 °C using an ÄKTA FPLC purification system (GE Healthcare) or a plastic Econo-Pac column (Bio-Rad).
SPR data were acquired on Biacore 8K or T200 instruments (Cytiva). Target proteins were immobilised at 25 °C on CM5 chips by amine coupling (EDC/NHS, Cytiva) in HBS-P+ running buffer (pH 7.4), containing 2 mM TCEP. After surface activation with EDC/NHS (contact time 420 s, flow rate 10 µl/min) SMARCA2^BD and SMARCA4^BD at 0.01–0.05 mg/ml in coupling buffer (10 mM Na-Acetate pH 6.5, 0.005% TWEEN 20 and 50 µM PFI-3[13]) were immobilised to a density of 100–5000 Response Units (RU). The reference surface was subsequently deactivated using 1 M ethanolamine. For VCB immobilisation, streptavidin (Sigma Aldrich, prepared at 1 mg/ml in 10 mM sodium acetate coupling buffer, pH 5.0) was immobilised by amine coupling to a density of 3000–5000 RU after which biotinylated VCB complex (0.125 mM in running buffer) was streptavidin-coupled to a density of 100–500 RU. Biotinylated VCB was prepared as previously described[27]: in brief, the complex was mixed 1:1 with EZ-Link NHS–PEG4–biotin (Thermo Scientific) and incubated at room temperature for 1 h.

[1] = 4h, read-out: RKO (4h) SMARCA4 DC50
[2] = 18h, read-out: RKO (18h) SMARCA4 DC50

T1 sequence (Q86U86 645-766): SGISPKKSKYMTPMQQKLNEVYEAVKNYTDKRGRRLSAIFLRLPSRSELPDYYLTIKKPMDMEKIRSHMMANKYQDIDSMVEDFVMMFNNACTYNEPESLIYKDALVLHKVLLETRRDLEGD
Chain of SMARCA4 (P51532 whole entry): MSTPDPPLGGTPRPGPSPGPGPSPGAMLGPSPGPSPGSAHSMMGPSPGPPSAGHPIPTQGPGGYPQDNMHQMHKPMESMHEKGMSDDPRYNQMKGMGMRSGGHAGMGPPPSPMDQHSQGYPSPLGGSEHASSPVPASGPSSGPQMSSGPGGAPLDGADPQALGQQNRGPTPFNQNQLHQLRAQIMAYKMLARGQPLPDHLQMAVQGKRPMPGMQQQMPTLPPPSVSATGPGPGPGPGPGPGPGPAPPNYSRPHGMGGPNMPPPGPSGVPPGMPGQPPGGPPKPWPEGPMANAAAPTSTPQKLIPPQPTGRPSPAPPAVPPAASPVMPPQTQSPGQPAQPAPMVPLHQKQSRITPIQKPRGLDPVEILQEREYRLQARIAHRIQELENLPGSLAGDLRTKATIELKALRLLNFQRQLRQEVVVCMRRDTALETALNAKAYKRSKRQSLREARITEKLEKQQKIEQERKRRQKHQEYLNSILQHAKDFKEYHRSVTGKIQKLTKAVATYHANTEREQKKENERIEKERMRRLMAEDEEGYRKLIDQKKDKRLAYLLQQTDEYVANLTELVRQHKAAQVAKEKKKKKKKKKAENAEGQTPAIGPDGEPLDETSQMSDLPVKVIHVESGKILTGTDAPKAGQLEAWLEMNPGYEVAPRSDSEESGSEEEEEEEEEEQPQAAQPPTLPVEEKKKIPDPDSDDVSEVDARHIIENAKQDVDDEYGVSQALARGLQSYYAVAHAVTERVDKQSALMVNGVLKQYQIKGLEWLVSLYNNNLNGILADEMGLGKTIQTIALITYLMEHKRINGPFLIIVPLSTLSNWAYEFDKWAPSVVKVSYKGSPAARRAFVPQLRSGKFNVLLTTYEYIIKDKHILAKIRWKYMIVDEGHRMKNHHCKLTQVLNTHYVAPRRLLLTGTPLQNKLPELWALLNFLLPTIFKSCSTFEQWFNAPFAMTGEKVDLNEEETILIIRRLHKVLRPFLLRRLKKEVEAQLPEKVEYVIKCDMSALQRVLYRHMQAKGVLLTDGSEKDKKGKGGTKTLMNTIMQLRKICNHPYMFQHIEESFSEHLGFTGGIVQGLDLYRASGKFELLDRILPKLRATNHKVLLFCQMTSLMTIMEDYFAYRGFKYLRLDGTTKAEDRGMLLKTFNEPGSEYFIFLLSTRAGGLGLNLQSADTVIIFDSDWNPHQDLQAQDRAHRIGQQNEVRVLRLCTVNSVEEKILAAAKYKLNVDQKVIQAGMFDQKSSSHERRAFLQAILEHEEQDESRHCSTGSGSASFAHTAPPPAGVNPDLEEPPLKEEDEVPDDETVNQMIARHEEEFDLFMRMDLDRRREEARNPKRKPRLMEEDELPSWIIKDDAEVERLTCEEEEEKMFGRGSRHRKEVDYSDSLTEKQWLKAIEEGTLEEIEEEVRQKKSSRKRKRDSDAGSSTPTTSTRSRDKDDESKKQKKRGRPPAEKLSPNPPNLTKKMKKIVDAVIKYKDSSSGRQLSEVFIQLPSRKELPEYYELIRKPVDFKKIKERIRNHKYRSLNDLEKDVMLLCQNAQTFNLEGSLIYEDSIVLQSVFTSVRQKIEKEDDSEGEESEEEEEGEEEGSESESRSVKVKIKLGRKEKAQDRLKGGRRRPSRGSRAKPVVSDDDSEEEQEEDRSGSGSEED
T2 sequence (P51532 1448-1569): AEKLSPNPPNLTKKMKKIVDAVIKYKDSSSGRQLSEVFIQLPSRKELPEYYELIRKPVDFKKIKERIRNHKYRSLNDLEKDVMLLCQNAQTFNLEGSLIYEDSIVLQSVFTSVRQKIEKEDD

Row | SMILES | EC50 (PBRM1BD5) | DC50 (SMARCA4; [1]) | DC50 (SMARCA4; [2]) | Kd (SMARCA4^BD; SMARCA4BD, mean ± SD) | Kd (SMARCA4^BD; individual replicates)
1 | CN1CCN(c2nc(=O)c3c(Br)cccc3o2)CC1 [compound 15] | > 10000 nM | > 25000 nM | > 25000 nM | 12000 ± 902 nM | 12900 nM and 11900 nM and 11100 nM
2 | CN1CCN(c2nc(=O)c3c(I)cccc3o2)CC1 [compound 16] | > 10000 nM | > 25000 nM | > 25000 nM | 22100 ± 1230 nM | 23100 nM and 20700 nM and 22400 nM
3 | Cc1ncsc1-c1ccc(CNC(=O)[C@@H]2C[C@H](O)CN2C(=O)[C@@H](NC(=O)C2(F)CC2)C(C)(C)C)c(OCCN2CCC(c3ccc4c(c3)n(C3CCCC3)c3nc(=O)c5c(Br)cccc5n43)CC2)c1 [compound 19] | 38 ± 2 nM | > 25000 nM | > 25000 nM | 138 ± 43 nM | 98.2 nM and 132 nM and 183 nM
4 | Cc1ncsc1-c1ccc(CNC(=O)[C@@H]2C[C@@H](O)CN2C(=O)[C@@H](NC(=O)C2(F)CC2)C(C)(C)C)c(OCCN2CCC(c3ccc4c(c3)n(C3CCCC3)c3nc(=O)c5c(Br)cccc5n43)CC2)c1 [compound 20] | 38 ± 4 nM | > 25000 nM | > 25000 nM | 182 ± 23 nM | 157 nM and 202 nM and 187 nM
5 | Cc1ncsc1-c1ccc(CNC(=O)[C@@H]2C[C@@H](O)CN2C(=O)[C@@H](NC(=O)C2(F)CC2)C(C)(C)C)c(OCCOCCOCCN2CCC(c3ccc4c(c3)n(C3CCCC3)c3nc(=O)c5c(Br)cccc5n43)CC2)c1 [compound 21] | 76 ± 4 nM | 22.9 nM and 45.5 nM and 8.98 nM | 42.3 nM and 189 nM and 70.5 nM | 863 ± 179 nM | 868 nM and 1040 nM and 682 nM
6 | Cc1ncsc1-c1ccc(CNC(=O)[C@@H]2C[C@@H](O)CN2C(=O)[C@@H](NC(=O)C2(F)CC2)C(C)(C)C)c(OCCOCCOCCOCCN2CCC(c3ccc4c(c3)n(C3CCCC3)c3nc(=O)c5c(Br)cccc5n43)CC2)c1 [compound 22] | 103 ± 13 nM | 32.8 nM and 118 nM and 40 nM | 39.9 nM and 168 nM and 69.1 nM | 1430 ± 339 nM | 1040 nM and 1650 nM and 1600 nM
7 | Cc1ncsc1-c1ccc([C@H](CCCCN2CCC(c3ccc4c(c3)n(C3CCCC3)c3nc(=O)c5c(Br)cccc5n43)CC2)NC(=O)[C@@H]2C[C@@H](O)CN2C(=O)[C@@H](NC(=O)C2(F)CC2)C(C)(C)C)cc1 [compound 25] | 36 ± 12 nM |  | 31.7 nM and 60 nM and 33.5 nM | 153 ± 10 nM | 142 nM and 157 nM and 161 nM
8 | Cc1ncsc1-c1ccc([C@H](COCCN2CCC(c3ccc4c(c3)n(C3CCCC3)c3nc(=O)c5c(Br)cccc5n43)CC2)NC(=O)[C@@H]2C[C@@H](O)CN2C(=O)[C@@H](NC(=O)C2(N(C)C)CC2)C(C)(C)C)cc1 [compound 26] | 22 ± 5 nM | 66.9 nM and 93.6 nM and 83.9 nM | 61.5 nM and 91.3 nM and 101 nM | 210 ± 17 nM | 202 nM and 199 nM and 229 nM
9 | Cc1ncsc1-c1ccc([C@H](COCCCN2CCC(c3ccc4c(c3)n(C3CCCC3)c3nc(=O)c5c(Br)cccc5n43)CC2)NC(=O)[C@@H]2C[C@@H](O)CN2C(=O)[C@@H](NC(=O)C2(F)CC2)C(C)(C)C)cc1 [compound 27] | 33 ± 7 nM |  | 22.8 nM and 30.9 nM and 34.7 nM | 388 ± 96 nM | 308 nM and 361 nM and 494 nM
10 | Cc1ncsc1-c1ccc([C@H](COC(C)(C)CN2CCC(c3ccc4c(c3)n(C3CCCC3)c3nc(=O)c5c(Br)cccc5n43)CC2)NC(=O)[C@@H]2C[C@@H](O)CN2C(=O)[C@@H](NC(=O)C2(F)CC2)C(C)(C)C)cc1 [compound 28] | 24 ± 11 nM |  | 101 nM and 200 nM (2×) and > 833 nM | 278 ± 14 nM | 267 nM and 293 nM and 274 nM
11 | Cc1ncsc1-c1ccc([C@H](CC[C@@H](C)CCN2CCC(c3ccc4c(c3)n(C3CCCC3)c3nc(=O)c5c(Br)cccc5n43)CC2)NC(=O)[C@@H]2C[C@@H](O)CN2C(=O)[C@@H](NC(=O)C2(F)CC2)C(C)(C)C)cc1 [compound 29] | 85 ± 25 nM | 11.1 nM and 13.5 nM and 12.4 nM and 24.9 nM | 6.86 nM and 10.4 nM (2×) and 14.2 nM and 15.3 nM and 14 nM | 397 ± 49 nM | 347 nM and 400 nM
12 | Cc1ncsc1-c1ccc([C@H](CCC(C)(C)CCN2CCC(c3ccc4c(c3)n(C3CCCC3)c3nc(=O)c5c(Br)cccc5n43)CC2)NC(=O)[C@@H]2C[C@@H](O)CN2C(=O)[C@@H](NC(=O)C2(F)CC2)C(C)(C)C)cc1 [compound 30] | 131 ± 49 nM | > 25000 nM |  | 579 ± 89 nM | 492 nM and 575 nM and 669 nM
